Here are results for 1 molecule from US20230183305A1, “KERATIN BD-11, PREPARATION METHOD THEREFOR AND PHARMACEUTICAL COMPOSITION AND USE THEREOF” (INSTITUTE OF MATERIA MEDICA, CHINESE ACADEMY OF MEDICAL …, priority 2019, published 2023).

Structures can show the parent of a compound that is named as a salt.

The subject of the test is tracheal phenol red excretion in ICR mice. As to the kind of experiment: Expectorant test, phenol red excretion method in mice. Format: in vivo, mouse. The method, then:
• Animals: male ICR mice; • Drugs and reagents: Mucosolvan (ambroxol hydrochloride tablets), phenol red, sodium bicarbonate, protein BD-11; • Instruments: centrifuge (Sigma-3K15 type), balance (XS105DU type), Microplate tester (BIO-TEK type).
Experiment grouping: • Solvent control group; • Mucosolvan 30 mg/kg group; • Protein BD-11, 20 mg/kg group, 50 mg/kg group.
The animals were fasted and water was taken freely 16 hours before the experiment. Orally administered Mucosolvan and different doses of protein BD-11 (administration volume 10 ml/kg) in groups, and the solvent control group was given the same volume of distilled water. One hour later, 2.5% phenol red solution was injected intraperitoneally. Mice were sacrificed by neck dislocation after 30 minutes. Take a trachea from below the thyroid cartilage to the branch of the trachea, and put the trachea into 3 ml 5% NaHCO3 solution and let it stand for 3 hours. Take 1 ml of the supernatant and centrifuge at 3000 rpm for 5 minutes. Measure and record the absorbance at 546 nm. According to the standard curve of phenol red, the excretion of phenol red was calculated.
Record the time point of oral administration, the time point of intraperitoneal injection of 2.5% phenol red solution, and the time point of taking the trachea respectively; The absorbance of each group of samples was measured by the microplate reader at 546 nm, Calculate the excretion of phenol red according to the standard curve of phenol red. Calculate the mean and standard error of the data in each group, and use TTEST to compare the solvent control group with other groups, and P<0.05 is considered as a significant difference.
Give Mucosolvan (30 mg/kg) and different doses of protein BD-11 (20 mg/kg, 50 mg/kg). One hour later, 2.5% phenol red solution was intraperitoneally injected, and 30 minutes later, the mice were sacrificed by neck dislocation. Take the trachea from below the thyroid cartilage to the branch of the trachea, put the trachea into 3 ml of 5% NaHCO3 solution and let it stand for 3 hours, take 1 ml of supernatant, centrifuge at 3000 rpm for 5 minutes, measure and record the absorbance at 546 nm. According to the standard curve of phenol red, the excretion of phenol red was calculated.

The molecule `Nc1c(Br)cc(Br)cc1CN[C@H]1CC[C@H](O)CC1` [Mucosolvan, ambroxol hydrochloride, reference compound] displayed a Phenol red excretion (Mucosolvan 30 mg/kg oral, X±SEM, n=10) of 1.061 ± 0.117 µg/mL. Also, the “Amount of phenol red excretion vs solvent control group” value (Mucosolvan 30 mg/kg, P<0.05) is given as “significantly increased”.
